In data set [1] the test system is CA1 cell layer of organotypic hippocampal slice cultures. Description: Hypoxic neuronal damage in organotypic hippocampal slice cultures (PI fluorescence in CA1). To be noted: for reduction of hypoxic CA1 damage (in words): present pre-. In kind it is cell-based, Wistar rat. On the procedure: Organotypic hippocampal slice cultures were prepared using the basic method of Pringle et al (1996, 1997) modified as follows:
Wistar rat pups (8-11 days old) were decapitated and the hippocampus rapidly dissected into ice-cold Gey's balanced salt solution supplemented with 4.5 mg/ml glucose. Slices were separated and plated onto Millicell CM culture inserts (4 per well) and maintained at 37° C./5% CO2 for 14 days. Maintenance medium consisted of 25% heat-inactivated horse serum, 25% Hank's balanced salt solution (HBSS) and 50% minimum essential medium with added Earle's salts (MEM) supplemented with 1 mM glutamine and 4.5 mg/ml glucose. Medium was changed every 3-4 days.
Experimental hypoxia was performed as described previously (Pringle et al., 1996; 1997). Briefly, cultures were transferred to serum free medium (SFM—75% MEM, 25% HBSS supplemented with 1 mM glutamine and 4.5 mg/ml glucose) containing 5 μg/ml of the fluorescent exclusion dye propidium iodide (PI). Cultures were allowed to equilibrate in SFM for 60 minutes prior to imaging. PI fluorescence was detected using a Leica inverted microscope fitted with a rhodamine filter set. Any cultures in which PI fluorescence was detected at this stage were excluded from further study. Hypoxia was induced by transferring cultures to SFM (+PI) which had been saturated with 95%N2/5%CO2. Culture plates (without lids) were then sealed into an airtight chamber in which the atmosphere was saturated with 95%N2/5%CO2 by continuously blowing through gas at 10 L/min for ten minutes before being sealed and placed in the incubator for 170 mins (total time of hypoxia was therefore 180 mins). At the end of the hypoxic period cultures were returned to normoxic SFM containing PI and placed back in the incubator for 24 hours.
Neuronal damage was assessed as described previously (Pringle et al., 1996; 1997) using either NIH Image 1.60 running on an Apple IIsi computer or OpenLab 2.1 (Improvision) running on a Macintosh G4/400. Images were captured using a monochrome camera and saved onto optical disk for offline analysis. Light transmission images were captured prior to the addition of drugs, and PI fluorescence images recorded at the end of the 24-hour post-hypoxia recovery period. The area of the CA1 cell layer was determined from the transmission image. The area of PI fluorescence in CA1 was measured using the density slice function within NIH image or Openlab, and neuronal damage expressed as the percentage of the CA1 in which PI fluorescence was detected above background.
Steroid compounds were prepared by making an initial 1 mg/ml solution in ethanol and further diluting down in SFM. Compounds were added to the cultures for 45 minutes prior to hypoxia, during the hypoxic episode and during the post-hypoxic recovery period. Control experiments consisted of cultures treated with vehicle alone.

Data set [2] relates to hippocampal CA1 pyramidal cells. The experiment in a line: Global cerebral ischemia in rats (4 vessel occlusion), surviving CA1 neurons by Nissl staining. In kind it is in vivo, male Wistar rats. On the procedure:
Cerebral ischemia was induced by four-vessel-occlusion (4VO) in male Wistar rats (250-280 g). Both vertebral arteries were occluded by electrocauterization in pentobarbital anesthesia (60 mg/kg i.p.). The animals were allowed to recover for 24 hours with free access to water but not food. The next day the carotid arteries were exposed under 2% halothane in 30% oxygen/70% nitrous oxide anesthesia and were occluded for 10 minutes using microvascular claps. Subsequently, both clamps were removed and both arteries were inspected for immediate reperfusion. During the operation and the following 3 hours normothermia of the animals (37.5Γ0.5° C.) was maintained by using a thermostatically controlled heating blanket connected to a rectal thermometer. For control, in sham-operated animals both vertebral arteries were cauterized in pentobarbital anesthesia and both common carotid arteries were exposed but not clamped under 2% halothane in 30% oxygen/70% nitrous oxide anesthesia the following day. The wound was treated with lidocaine gel and then sutured. The animals were kept under a heating lamp at 30° C. environmental temperature until they regained consciousness.
Seven groups of animals were investigated: • 1. (n=8) steroid compound, 7β-OH EPIA (0.1 mg/kg, i.v. via tail vein, three injections: 15 minutes prior to the induction of ischemia, during ischemia and 5 minutes after reperfusion); • 2. (n=8) steroid compound, 7β-OH EPIA (0.3 mg/kg, i. v. three injections as described in 1.); • 3. (n=8) steroid compound, 7β-OH EPIA (1 mg/kg, i. v., three injections as described in 1.); • 4. (n=8) NBQX (disodium salt, because more water soluble) as reference substance and positive control (TOCRIS, Germany, 30 mg/kg, i. p., three injections as described in 1.); • 5. (n=8) received vehicle (0.9% NaCl, containing 100 μl Ethanol) three injections as described in 1.); • 6. (n=8) ischemia alone; • 7. (n=8) sham operated controls.
The substances were dissolved in 100 μl Ethanol and finally diluted with 0.9% NaCl.
After a survival time of 7 days after ischemia, all animals were perfusion fixed transcardially with 4% paraformaldehyde. The brains were then removed carefully and postfixed in the same fixative for 2 hours. After cryoprotection in 30% sucrose, the brains were rapidly frozen in isopentane and stored at −80° C. Twenty-micrometer cryostat sections comprising the hippocampal formation were Nissl stained with toluidine blue or NeuroTrace fluorescence.
The severity of neuronal damage in the hippocampal CA1 region after ischemia was evaluated by the number of surviving neurons using Nissl staining. The mean number of morphologically intact neurons per 400 μm length was calculated in CA1 region for each group. […] The data were statistically analyzed by paired Student's t-test. […]

Setting [3] is: Experiment 1, 100 nM, compound present pre-, during and post-hypoxia, control hypoxia 25.5 ± 6.4.
The mark [4] stands for this setting: Experiment 1, 100 nM, during and post-hypoxia.
[5] abbreviates: Experiment 2, 1 nM, control hypoxia 31.9 ± 4.7.
The mark [6] stands for this setting: Experiment 2, 10 nM, control hypoxia 31.9 ± 4.7.
Where [7] appears, read: Experiment 2, 100 nM, control hypoxia 31.9 ± 4.7.

Structures are written as SMILES.

For `CC12CCC3C(C1CCC2=O)[C@@H](O)C[C@H]1C[C@@H](O)CCC31C` (stereo partly drawn) [7βOH-EPIA, 7β-hydroxyepiandrosterone], the “% Damage in CA1” value is 9.0 ± 4.7 % in data set [1] (setting [3]), 20.6 ± 7.2% in data set [1] (setting [5]), 11.9 ± 4.7 % in data set [1] (setting [6]) and 14.3 ± 5.0 % in data set [1] (setting [7]). For the same compound, the “reduction of hypoxic CA1 damage (in words)” value in data set [1] (setting [4]) is “significantly reduced”. In addition, the “neuroprotective effect against hypoxic damage (in words)” value in data set [1] (Experiment 2, 1 nM) is recorded as “activity was lost”; in data set [1] (Experiment 2, 10 nM), “significantly neuroprotective”; in data set [1] (Experiment 2, 100 nM), “significantly neuroprotective”. For the same compound, the “neuroprotective effect on CA1 pyramidal cells compared to the sham operated group” value in data set [2] (0.1 mg/kg i.v., three injections, 10 min global ischemia, 7 days survival, p=0.01) worked out at 74.8%; in data set [2] (0.3 mg/kg i.v., three injections, 10 min global ischemia, 7 days survival, p=0.0008) it was 83.9%. Besides, in data set [2] (1.0 mg/kg i.v., three injections, 10 min global ischemia, 7 days survival), the “neuroprotective effect on CA1 pyramidal cells (in words)” value is listed as “only a tendency to neuroprotection, but the effect was not significant”. Further, the “behavioral abnormalities of the animals” value in data set [2] (injected i.v. prior, during and after ischemia, all experiments) is recorded as “never observed any behavioral abnormalities”.

As to `CC12CCC3C(C1CCC2=O)[C@H](O)C[C@H]1C[C@@H](O)CCC31C` (stereo partly drawn) [7αOH-EPIA, 7α-Hydroxy-EPIA], the “% Damage in CA1” value is 4.0 ± 2.9 % in data set [1] (setting [3]), 28.8 ± 5.8% in data set [1] (setting [5]), 21.9 ± 8.1% in data set [1] (setting [6]) and 11.8 ± 2.8 % in data set [1] (setting [7]). In addition, the “reduction of hypoxic CA1 damage (in words)” value in data set [1] (setting [4]) is “significantly reduced”. The “neuroprotective effect against hypoxic damage (in words)” value in data set [1] (Experiment 2, 1 nM) is listed as “no effect”; in data set [1] (Experiment 2, 10 nM), “not-statistically significant reduction”; in data set [1] (Experiment 2, 100 nM) it was “significantly protective”.

These data come from patent publication US7718639B2, “7-hydroxyepiandrosterone having neuroprotective activity” (Hunter-Fleming Limited, priority 2000, dated 2010).
